Test results published in US12544364B2, “Use of a phosphodiesterase 10 inhibitor for the treatment of tourette syndrome” (Noema Pharma AG, priority 2020, dated 2026).

Tests used:
Assay type in all cases: physicochemical
[1] = Preliminary forced degradation study (acidic, basic, oxidative, photolytic stress) and excipient compatibility
Protocol: (§1) Stability: Preliminary forced degradation study of the crystalline form of the free base of the compound of Formula I in acidic, basic, oxidative, and photolytic stress conditions was conducted to investigate the viability of the crystalline form in various stress conditions. Since the solubility of the compound of Formula I was low in the standard solvent ethanol, ethanol was replaced by N-methyl-2-pyrrolidone (NMP).
The crystalline form of the free base of the compound of Formula I was stable for up to 8 days in solid state at 80° C. and in solution at pH 3 to pH 7 at RT. […] The crystalline form was stable after exposure to light in solid state.

[2] = Thermodynamic stability of the crystalline form; settings: at least between 20° C. and 60° C.
Source text: The XRPD pattern can be obtained by following protocols known in the field.

[3] = Preliminary solid state stability, UPLC analysis after storage
Protocol: as §1
A defined amount of the crystalline form of the free base of the compound of Formula I (0.2-0.8 mg) was weighed into a 1.8 mL HPLC vial and stored open (75% RH) or closed (ambient) at the temperature and the time indicated. After incubation, compound was dissolved in 1-1.5 mL NMP to a final concentration of 0.2-0.5 mg/mL and submitted to UPLC analysis (254 nm).

[4] = Stability in suspension vehicle and parenteral formulation; settings: 0.5% HPC/1% Tween 80, up to 5 weeks at RT
Protocol: For parenteral administration, a 30% Kleptose formulation (1.5 mg/ml, physiologic osmolality, pH 6.2), with a stability of at least 4 weeks at 40° C. was developed.

[5] = Solubility of the crystalline form in aqueous media, simulated fluids and organic solvents; settings: in the presence of surfactants (e.g., Tween-80, sodium dodecyl sulfate, dioctyl sulfosuccinate, Pluronic F68) and cyclodextrins
Protocol: Solubility in simulated gastric fluid (SGF), fasted state simulated intestinal fluid (FaSSIF), and fed state simulated intestinal fluid (FeSSIF) was 0.019 mg/ml, 0.006 mg/mL, and 0.022 mg/mL, respectively. Solubility increased 50-100-fold in the presence of surfactants (e.g., Tween-80, sodium dodecyl sulfate, dioctyl sulfosuccinate, or Pluronic F68) and cyclodextrins; however it was still rather low.

Cn1ncc(C(=O)N2CCOCC2)c1C(=O)Nc1ccn2nc(-c3ccccc3)nc2c1 [1-methyl-4-(morpholine-4-carbonyl)-N-(2-phenyl[1,2,4]triazolo[1,5-a]pyridin-7-yl)-1H-pyrazole-5-carboxamide]
Excipient compatibility (CompaS assay) [1]: compatible with almost all excipients
Stability towards oxidation ([1]; 1 day): stable
Stability towards daylight ([1]; in solution): stable
Stability in solution ([1]; in solution at pH 3 to pH 7 at RT, up to 8 days): stable
Stability in solution at higher or lower pH ([1]; in solution, pH higher than 7 or lower than 3): degradation was observed
Stability in the Suntest ([1]; in solution, time dependent): moderately stable to unstable
Stability towards oxidation ([1]; prolonged exposure): some sensitivity
Stability after exposure to light ([1]; solid state): stable
Stability in solid state ([1]; solid state at 80° C., up to 8 days): stable
Thermodynamic stability [2]: thermodynamically stable
Degradation products ([3]; solid state at various temperatures): < 0.5%
UPLC analysis (Area % main peak) ([3]; solid state, 4 w, 4° C.): 100 Area %
UPLC analysis (Area % main peak) ([3]; solid state, 4 w, 40° C.): 100 Area %
UPLC analysis (Area % main peak) ([3]; solid state, 4 w, 40° C., 75% RH): 100 Area %
UPLC analysis (Area % main peak) ([3]; solid state, 4 w, 60° C.): 100 Area %
UPLC analysis (Area % main peak) ([3]; solid state, 4 w, RT): 100 Area %
Time stable in solid state ([3]; solid state, 40-60° C.): at least 4 weeks
UPLC analysis (Area % main peak) ([3]; solid state, 1 h, 80° C.): 100 Area %
UPLC analysis (Area % main peak) ([3]; solid state, 1 d, 80° C.): 100 Area %
UPLC analysis (Area % main peak) ([3]; solid state, 8 d, 80° C.): 100 Area %
Particle growth and hydrate formation in suspension vehicle [4]: only minor particle growth and no hydrate formation
Stability in suspension vehicle [4]: stable
Solubility increase [5]: 50-100 fold
